# Test results published in patent publication EP4772500A1, “NOVEL ISOXAZOLE COMPOUND AS TM4SF5-SPECIFIC INHIBITOR AND USE THEREOF” (Seoul National University R&DB Foundation, priority 2023, dated 2025).
# Legend:
# TM4SF5 = molecular target: T1, TM4SF5 (Homo sapiens, UniProt O14894); experiment: 1,2-3H-Cholesterol binding to pulled-down TM4SF5; parameters: expressed in transfected cells; captured on streptavidin agarose; conditions: 1,2-3H-Cholesterol (50 µM); for binding of TM4SF5 to cholesterol: drug 2.5 µM, 1 hour (FIG. 19c); for IC50: Huh7KO Strep-TM4SF5 (FIG. 19e), read-out: concentration at which binding between TM4SF5 and cholesterol was reduced by 50%
# T1 sequence (O14894 1-197): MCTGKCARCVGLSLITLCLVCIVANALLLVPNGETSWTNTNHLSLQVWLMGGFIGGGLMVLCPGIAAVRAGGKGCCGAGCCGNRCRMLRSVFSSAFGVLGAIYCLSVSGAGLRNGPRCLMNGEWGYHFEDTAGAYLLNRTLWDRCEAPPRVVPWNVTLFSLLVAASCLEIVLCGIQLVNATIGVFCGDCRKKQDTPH
# Experimental: (a) Expression vectors for a control vector, TM4SF1, TM4SF5 WT, and R113Q, C118/145A, H127A, and N138A mutants of TM4SF5 were injected into the HEK293FT cell line, which was confirmed not to express TM4SF5, and allowed to express for 48 hours. (b) Huh7KO cell lines, in which TM4SF5 was knocked out in Huh7, were stably infected with a retrovirus encoding pBabe-EV or pBabe-TM4SF5-HA. […] (d) Strep-EV, Strep-PD-L1 WT, and 3NQ (N192/200/219Q) and 4NQ (N35/192/200/219Q) N-glycosylation mutants were injected into Huh7 cells to be expressed. (e) Strep-EV and Strep-TM4SF5 expression vectors were injected into Huh7KO cells and allowed to express for 48 hours. (a-e) After obtaining cell extracts, TM4SF5-strep, TM4SF5-HA, or PD-L1-strep was pulled down with streptavidin agarose resin or anti-HA antibody from extracts containing 0.2, 0.25, or 1.0 mg of protein for each experimental condition. Each of the pulled-down beads was treated with ^14C-labelled ST-5-002 (10, 25, or various indicated concentrations, µM) for 1 hour in the presence or absence of 400 µM of cold ST-5-002 (a-b). Alternatively, they were treated with 1,2-^3H-Cholesterol (50 µM) alone or together with ST-3-001 (negative control compound), ST-5-001, or ST-5-002 (2.5 µM each) for 1 hour (c-e). For the experimental samples of each condition, radioactive isotope values were repeatedly measured using a TriCarb scintillation counter (PerkinElmer, Waltham, MA).
# TM4SF5 and SLAMF7 = molecular target: T2, TM4SF5 and SLAMF7 (Homo sapiens, UniProt O14894); experiment: Streptavidin pulldown: binding between TM4SF5 and SLAMF7; type: cell-based
# T2 construct: expressed in transfected cells; host or cells: SNU761 human hepatocellular carcinoma cells
# T2 sequence (O14894 1-197): T1 sequence (O14894 1-197)
# Experimental: Cells were cultured to ~60% density in a cell incubator at 37°C and 5% CO2, and then transfected using PEI and cultured in a cell incubator at 37°C for two days. After cultivation, cell extracts were obtained by the method described above. After precipitating a desired protein from the cell extracts using an immunoprecipitation method, the binding proteins were identified by the Western blot technique described above. Specifically, cells cultured in a 100 mm cell culture dish for two days were washed twice with PBS, and protease inhibitor cocktails (GenDepot, USA) were added to 500 µl of immunoprecipitation lysis buffer (0.5% Triton X-100 or Brij 58, 40 mM HEPES, 150 mM NaCl, 1 mM EDTA, pH 7.4), followed by treatment at 4°C for 15 minutes. After collecting the cells, centrifugation was performed at 12,000x g at 4°C for 15 minutes, and the supernatant was transferred to a new microcentrifuge tube to obtain a cell extract. Proteins therein were quantified using a BCA reagent (Thermo Scientifics, USA). An electrophoresis sample was prepared by adding 4x laemmli sample buffer to a portion of the quantified sample and boiling at 100°C for 5 minutes. For immunoprecipitation, Streptavidin Agarose Resin (Thermo Fisher Scientific) or anti-HA antibody-coated Sepharose beads were added in proportion to the quantified protein amount, followed by rotation at 4°C for 4 hours, and then centrifugation was performed at 7,000x g at 4°C for 5 minutes and the supernatant was discarded. […] (f) After treating NK92-EV or NK92-TM4SF5 cells with DMSO or drugs ST-2-001 (1 nM), ST-3-005 (10 nM or 1 µM), ST-5-001, or ST-5-002 (100 nM or 1 µM) for 24 hours, the expression of SLAMF7 expressed on the cell surface was analyzed through immunostaining using flow cytometry. The expression level of SLAMF7 was confirmed by adding a SLAMF7 antibody to bind with SLAMF7 and then measuring the fluorescence linked to the SLAMF7 antibody using flow cytometry. […]
# [1] = SNU761 expressing TM4SF5-Strep and FLAG-SLAMF7, 24 hours, brij58 lysis (FIG. 15e-f)
SMILES,binding of TM4SF5 to cholesterol (TM4SF5),binding between TM4SF5 and SLAMF7 (TM4SF5 and SLAMF7; [1]),IC50 (TM4SF5) [µM],"binding between TM4SF5 and SLAMF7 (TM4SF5 and SLAMF7; 2.5 µM, 24 hours, SNU761 (FIG. 13j))"
"COc1cccc(-c2cc(-c3ccc(NC(C)=O)cc3)no2)c1 [ST-3-001, N-(4-(5-(3-methoxyphenyl)isoxazole-3-yl)phenyl)acetamide]",not affected,did not decrease but rather showed an increasing trend,–,–
"CC(=O)Nc1ccc(-c2cc(-c3ccc(O)cc3)no2)cc1 [ST-5-001, N-(4-(3-(4-hydroxyphenyl)isoxazole-5-yl)phenyl)acetamide]",inhibited,–,6.15,inhibited
"Cc1ccc(C(=O)Nc2ccc(-c3cc(-c4ccc(O)cc4)no3)cc2)cc1 [ST-5-002, N-(4-(3-(4-hydroxyphenyl)isoxazole-5-yl)phenyl)-4-methylbenzamide]",inhibited,decreased,0.787,–
